Results published in patent US20130123201A1, “MODULATION OF CYTOKINE-INDUCED CHRONIC INFLAMMATORY RESPONSES” (UNIVERSITY OF MANITOBA, priority 2010, published 2013).
“And” between values parts separate entries of the source, which are not always exact repeats. Equal entries are not always repeated. “Also recorded” adds a separate entry of the source.

Legend:
[1] = system: Human macrophage-like THP-1 cells; test: Kinome profiling with peptide arrays of kinase phosphorylation targets; format: cell-based; settings: cytokine 20 ng/mL, 15 min, relative to un-stimulated control cells
Protocol: Kinome profiling: Human monocytic THP-1 cells were differentiated to plastic-adherent macrophage-like cells by treatment with PMA as described above, the cells were rested for 24 hr and then stimulated with either IL-32 (20 ng/mL) or IL-17 (20 ng/mL) for 15 min.
Subsequently, cellular lysates were prepared in lysis buffer (containing 20 mM Tris-HCl pH 7.5, 150 mM NaCl, 1 mM EDTA, 1 mM EGTA, 1 mM sodium fluoride, 1 mM sodium orthovanadate, 2.5 mM sodium pyrophosphate, protease inhibitor cocktail (Sigma-Aldrich) and 1% (v/v) Triton X-100, as taught by Jalal et al. (2009, Genome to kinome: species-specific peptide arrays for kinome analysis. Sci. Signal 2:11). Peptide arrays representing phosphorylation targets of kinase activity were incubated with the cellular lysates for quantifying global kinase activity following the methods disclosed by Jalal et al. (2009). The trends of protein phosphorylation events upon stimulation with IL-32 and IL-17 were comprehensively analysed after normalization and background correction of signal strength following the methods disclosed by Jalal et al. (2009). The phosphorylations of the peptides on the array were quantitated in the cytokine-treated cells relative to the un-stimulated control cells.
Kinome profiling: Human macrophage-like THP-1 cells were differentiated to plastic-adherent macrophage-like cells by treatment with PMA as described above, after which the cells were rested for 24 hr and then stimulated with either IL-32 (20 ng/mL) or IL-17 (20 ng/mL) for 15 min. Subsequently, cellular lysates were prepared in lysis buffer (containing 20mM Tris-HCl pH 7.5, 150 mM NaCl, 1 mM EDTA, 1 mM EGTA, 1 mM sodium fluoride, 1 mM sodium orthovanadate, 2.5 mM sodium pyrophosphate, protease inhibitor cocktail (Sigma-Aldrich Canada Inc.) and 1% (v/v) Triton X-100, as taught by Mookherjee et al. (2006). Peptide arrays representing phosphorylation targets of kinase activity were incubated with the cellular lysates for quantifying global kinase activity as taught by Jalal et al. (2009, Genome to kinome: species-specific peptide arrays for kinome analysis. Sci. Signal 2:11). The trends of protein phosphorylation events upon stimulation with IL-32 and IL-17 were comprehensively analysed after normalization and background correction of signal strength as taught by Jalal et al. (2009). The phosphorylations of the peptides on the array were quantitated in the cytokine-treated cells relative to the un-stimulated control cells.
Differential phosphorylation events in THP-1 cells stimulated by IL-32 and IL-17: THP-1 cells were stimulated with either IL-17 (20 ng/ml) or IL-32 (20 ng/ml) for 15 min. The cellular lysates were incubated with peptide arrays representing phosphorylation targets of kinase activity for quantifying global kinase activity as previously described. The phosphorylation of the peptides on the array were quantitated in the cytokine-treated cells relative to the un-stimulated control cells after normalization and background correction of signal strength taught by Jalal et al. (2009).

[2] = system: Human fibroblast-like synovial (FLS) cells; test: ELISA of chemokine production in FLS tissue culture supernatants; format: cell-based
Protocol: ELISA immunoassay: Tissue culture supernatants were centrifuged at 1500× g for 5-7 min to obtain cell-free samples and the aliquots were stored at −20° C. until further use. Production of chemokine Gro-α was monitored in the tissue culture supernatants by ELISA employing human Gro-α DuoSet (R&D Systems Inc.) as per the manufacturer's instructions. Production of cytokine TNF-α was monitored in the tissue culture supernatants using specific antibody pairs from eBioscience, Inc., and production of IL-8 was monitored using specific antibody pairs from R&D Systems, Inc., as per the manufacturer's instructions. The concentration of the cytokines or chemokines in the tissue culture supernatants was evaluated by establishing a standard curve with serial dilutions of the recombinant human cytokines or chemokines as required.
ELISA immunoassay: Tissue culture supernatants were centrifuged at 1500× g for 5-7 min to obtain cell-free samples and the aliquots were stored at −20° C. until further use. Production of chemokine Gro-α was monitored in the tissue culture supernatants by ELISA employing human Gro-α DuoSet (R&D Systems Inc.) per the manufacturer's instructions. […] The concentrations of the cytokines or chemokines in the tissue culture supernatants were evaluated by establishing a standard curve with serial dilutions of the recombinant human cytokines or chemokines as required.

## IL-17: Recombinant human cytokine IL-17A/F from eBioscience, used as stimulant
[1]
  Relative Fold change in phosphorylation, APE1 (P27695) S289: 1.52 fold and 1.28 fold
  Relative Fold change in phosphorylation, Akt1 (P31749) S124/9: −3.27 fold
  Relative Fold change in phosphorylation, CCR5 (P51681) S336/7: −2.62 fold
  Relative Fold change in phosphorylation, CTNNB1 (P35222) T41/45: −4.12 fold
  Relative Fold change in phosphorylation, DAPK1 (P53355) S308: 2.19 fold and 1.45 fold
  Relative Fold change in phosphorylation, Daxx (Q9UER7) S668/71: −3.45 fold
  Relative Fold change in phosphorylation, Grb10 (Q13322) S150: −1.86 fold
  Relative Fold change in phosphorylation, Kit (P10721) Y721: −1.75 fold
  Relative Fold change in phosphorylation, NFAT4 (Q12968) S163/5: −2.22 fold
  Relative Fold change in phosphorylation, PKACa (P17612) S338: −1.64 fold
  Relative Fold change in phosphorylation, STAT6 (P42226) Y641: −1.94 fold
  Relative Fold change in phosphorylation, Smad3 (P84022) S422/3/5: −2.37 fold
  Relative Fold change in phosphorylation, TAK1 (O43318) T184: −2.01 fold
  Relative Fold change in phosphorylation, axin-1 (O15169) S486: −3.73 fold
  Relative Fold change in phosphorylation, p53 (P04637) S6/9: −2.43 fold
  Relative Fold change in phosphorylation, p300 (Q09472) S1834: 1.92 fold and 1.71 fold
[2]
  Chemokine Gro-α production: robust induction; also recorded: robust Gro-α production
[2]; TNF-α 10 ng/mL plus cytokine 20 ng/mL, 24 hr
  Effect on TNF-α-induced chemokine Gro-α production: synergistically enhanced
